The results in this text go back to US9085576B2 (AMGEN INC., priority 2013, dated 2015).

One experiment has as its target Cathepsin D (Cat D) (Homo sapiens (Human), UniProt P07339). As to the kind of experiment: In vitro enzymatic Cathepsin D (Cat D) FRET assay. The experiment is classed as biochemical. The settings on record: read-out: CatD IC50.
For a further experiment, the system named is Abeta 40. As to the kind of experiment: In vivo inhibition of beta-secretase: Abeta 40 reduction in CSF and brain of the rat. As to conditions: after 4 hrs; for % reduction of rat CSF levels at 10 pmk / % reduction of rat brain levels at 10 mpk: 10 mpk.
Experiment [1] concerns the target Beta Secretase enzyme (BACE) (Homo sapiens (Human), UniProt P56817). As to the kind of experiment: In vitro enzymatic BACE FRET assay. The settings on record: read-out: BACE1 Enzyme assay IC50. It counts as biochemical.
The next experiment concerns the target BACE (Homo sapiens (Human), UniProt P56817). As to the kind of experiment: In vitro BACE cell-based assay (Aβ40 in conditioned medium, sandwich ELISA). For orientation: An ELISA detects its analyte on a solid surface through an enzyme-linked reagent.

Sequence of Cathepsin D (Cat D) (P07339 65-412, species assumed): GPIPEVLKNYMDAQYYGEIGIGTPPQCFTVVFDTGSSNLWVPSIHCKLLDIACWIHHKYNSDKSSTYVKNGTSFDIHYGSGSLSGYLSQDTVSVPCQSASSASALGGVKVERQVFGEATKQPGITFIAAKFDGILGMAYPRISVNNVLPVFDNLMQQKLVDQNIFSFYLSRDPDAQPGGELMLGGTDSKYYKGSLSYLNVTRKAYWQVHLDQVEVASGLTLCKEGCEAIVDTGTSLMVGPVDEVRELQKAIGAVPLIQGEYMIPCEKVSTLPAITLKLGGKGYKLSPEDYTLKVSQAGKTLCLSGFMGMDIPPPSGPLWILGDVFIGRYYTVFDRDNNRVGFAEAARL
Sequence of Beta Secretase enzyme (BACE) (P56817 46-501): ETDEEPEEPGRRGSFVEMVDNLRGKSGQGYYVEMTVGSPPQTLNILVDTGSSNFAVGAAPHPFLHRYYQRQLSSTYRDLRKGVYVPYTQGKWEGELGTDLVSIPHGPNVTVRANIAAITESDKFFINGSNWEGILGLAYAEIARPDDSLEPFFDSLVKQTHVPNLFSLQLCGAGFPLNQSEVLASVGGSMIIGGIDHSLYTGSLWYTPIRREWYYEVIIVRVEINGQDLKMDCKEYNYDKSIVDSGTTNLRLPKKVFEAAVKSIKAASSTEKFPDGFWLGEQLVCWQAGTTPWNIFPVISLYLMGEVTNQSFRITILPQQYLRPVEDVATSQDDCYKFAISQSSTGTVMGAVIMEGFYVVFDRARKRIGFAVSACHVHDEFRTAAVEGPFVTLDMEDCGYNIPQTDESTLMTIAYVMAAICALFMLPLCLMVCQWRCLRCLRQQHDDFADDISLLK
Sequence of BACE (P56817 46-501, species assumed): as the sequence (P56817 46-501) above
Text for Abeta 40: In Vivo Inhibition of Beta-Secretase
Several animal models, including mouse, rat, dog, and monkey, may be used to screen for inhibition of beta-secretase activity in vivo following administration of a test compound sample. […] A separate group of animals receive 2% hydroxypropyl methylcellulose, 1% Tween80 alone, containing no test compound, and serve as a vehicle-control group. At the end of the test period, animals are sacrificed and brain tissues, plasma or cerebrospinal fluid are collected. […] Homogenates are centrifuged at 355,000 g, 4° C. for 30 minutes. CSF or brain supernatants are then analyzed for the presence of A-beta peptide by specific sandwich ELISA assays based on ECL (Electrochemiluminescence) technology. For example, rat Abeta40 is measured using biotinylated-4G8 (Signet) as a capture antibody and Fab40 (an in-house antibody specific to the C-terminal of Abeta40) as a detection antibody.
Actual vehicles used: Oral: 2% HPMC, 1% Tween80, pH 2.2

As a reminder, the IC50 is the concentration at which inhibition is half-maximal. In the case of `N#Cc1cnc(C(=O)Nc2ccc(F)c([C@@]3(C(F)F)N=C(N)O[C@@H]4C[C@@H]43)c2)c(Cl)c1` [Example 66, N-(3-((1R,5S,6R)-3-amino-5-(difluoromethyl)-2-oxa-4-azabicyclo[4.1.0]hept-3-en-5-yl)-4-fluorophenyl)-3-chloro-5-cyanopicolinamide], the IC50 at Cathepsin D (Cat D) came to 825 µM. Also, the “% reduction of rat CSF levels at 10 pmk” value in the experiment with Abeta 40 (Abeta 40 in rat CSF) was determined as 59%. In addition, the “% reduction of rat brain levels at 10 mpk” value (shortened to “% reduction … at 10 mpk”) with Abeta 40 (Abeta 40 in rat brain) was determined as 42%.

For `NC1=N[C@@](c2cc(NC(=O)c3ncc(Cl)cc3Cl)ccc2F)(C(F)F)[C@H]2C[C@H]2O1` [Example 71, N-(3-((1R,5S,6R)-3-amino-5-(difluoromethyl)-2-oxa-4-azabicyclo[4.1.0]hept-3-en-5-yl)-4-fluorophenyl)-3,5-dichloropicolinamide], at Cathepsin D (Cat D), the IC50 was determined as 478 µM. For the same compound, in the experiment on Abeta 40 (Abeta 40 in rat CSF), the “% reduction of rat CSF levels at 10 pmk” value is listed as 80%. The “% reduction … at 10 mpk” value with Abeta 40 (Abeta 40 in rat brain) worked out at 73%.

Turning to `N#Cc1ccc(C(=O)Nc2ccc(F)c([C@@]3(C(F)F)N=C(N)O[C@@H]4C[C@@H]43)c2)nc1` [Example 77, N-(3-((1R,5S,6R)-3-amino-5-(difluoromethyl)-2-oxa-4-azabicyclo[4.1.0]hept-3-en-5-yl)-4-fluorophenyl)-5-cyanopicolinamide], the 50% inhibitory concentration (IC50) at Cathepsin D (Cat D) was found to be 698 µM. The “% reduction of rat CSF levels (3 mpk)” value with Abeta 40 (Abeta 40 in rat CSF, 3 mpk) is reported as 66 (3 mpk) %. Also, in the experiment with Abeta 40 (Abeta 40 in rat CSF), the “% reduction of rat CSF levels at 10 pmk” value was found to be 78%. Further, the “% reduction of rat brain levels (3 mpk)” value in the experiment on Abeta 40 (Abeta 40 in rat brain, 3 mpk) is 46 (3 mpk) %. In addition, the “% reduction … at 10 mpk” value in the experiment on Abeta 40 (Abeta 40 in rat brain) stood at 71%.

Turning to `N#Cc1ccc(C(=O)Nc2ccc(Cl)c([C@@]3(C(F)F)N=C(N)O[C@@H]4C[C@@H]43)c2)nc1` [Example 93, N-(3-((1R,5S,6R)-3-amino-5-(difluoromethyl)-2-oxa-4-azabicyclo[4.1.0]hept-3-en-5-yl)-4-chlorophenyl)-5-cyanopicolinamide], the IC50 at Cathepsin D (Cat D) came out at 1300 µM. Further, in the experiment on Abeta 40 (Abeta 40 in rat CSF), the “% reduction of rat CSF levels at 10 pmk” value came to 76%. Besides, the “% reduction … at 10 mpk” value with Abeta 40 (Abeta 40 in rat brain) worked out at 83%.

Consider `C#C[C@H](C)Oc1cnc(C(=O)Nc2ccc(F)c([C@@]3(C(F)F)N=C(N)O[C@@H]4C[C@@H]43)c2)cn1` [Example 162, N-(3-((1R,5S,6R)-3-amino-5-(difluoromethyl)-2-oxa-4-azabicyclo[4.1.0]hept-3-en-5-yl)-4-fluorophenyl)-5-((S)-but-3-yn-2-yloxy)pyrazine-2-carboxamide], for which, on Cathepsin D (Cat D), the IC50 stood at 1060 µM. Moreover, in the experiment on Abeta 40 (Abeta 40 in rat CSF), the “% reduction of rat CSF levels at 10 pmk” value turned out to be 11%. Further, the “% reduction … at 10 mpk” value in the experiment on Abeta 40 (Abeta 40 in rat brain) is listed as −7%.

For the compound `NC1=N[C@@](c2cc(NC(=O)c3nn(C(F)F)cc3Cl)ccc2F)(C(F)F)[C@H]2C[C@H]2O1` [Example 163, N-(3-((1R,5S,6R)-3-amino-5-(difluoromethyl)-2-oxa-4-azabicyclo[4.1.0]hept-3-en-5-yl)-4-fluorophenyl)-4-chloro-1-(difluoromethyl)-1H-pyrazole-3-carboxamide], the concentration for half-maximal inhibition (IC50) at Cathepsin D (Cat D) was 464 µM. For the same compound, in the experiment with Abeta 40 (Abeta 40 in rat CSF), the “% reduction of rat CSF levels at 10 pmk” value was 33%. Also, the “% reduction … at 10 mpk” value in the experiment on Abeta 40 (Abeta 40 in rat brain) came to 14%.

For `Cc1cc(NC(=O)c2ccc(C#N)cn2)cc([C@@]2(C(F)F)N=C(N)O[C@@H]3C[C@@H]32)c1F` [Example 390, N-(3-((1R,5S,6R)-3-amino-5-(difluoromethyl)-2-oxa-4-azabicyclo[4.1.0]hept-3-en-5-yl)-4-fluoro-5-methylphenyl)-5-cyanopicolinamide], in the experiment on Abeta 40 (Abeta 40 in rat CSF), the “% reduction of rat CSF levels at 10 pmk” value worked out at 71%. The “% reduction … at 10 mpk” value in the experiment on Abeta 40 (Abeta 40 in rat brain) is 54%.

`NC1=N[C@@](c2cc(NC(=O)c3c(F)cc(F)cc3F)ccc2F)(C(F)F)[C@H]2C[C@H]2O1` [Example 451, N-(3-((1R,5S,6R)-3-amino-5-(difluoromethyl)-2-oxa-4-azabicyclo[4.1.0]hept-3-en-5-yl)-4-fluorophenyl)-2,4,6-trifluorobenzamide]: the concentration for half-maximal inhibition (IC50) in experiment [1] was determined as 5.38 µM; at Cathepsin D (Cat D) it was 960 µM; at BACE, 6.28 µM.
